# Patent US11857596B2, “Animal feed additive and animal feed” (priority 2018, dated 2024)
# Read-outs that look alike come from different tables or passages of the source. Residues, ends and D or L forms follow the SMILES beside them.
# Key:
# Type in all cases: cell-based
# [1] = test system: Caco-2 cells (human intestinal epithelial cells); experiment: Membrane strengthening experiment (TER recovery of barrier function after TNF-α)
# [2] = test system: Lactobacillus acidophilus AJ13778; experiment: Minimum inhibitory concentration, spot-on-lawn method
# [3] = test system: Escherichia coli MG1665; experiment: as above
# [4] = test system: Lactobacillus salivarius AJ110152; experiment: as above; conditions: Ligilactobacillus salivarius
# [5] = test system: Salmonella enterica AJ2785; experiment: microbe, parasite or virus in culture; conditions: Salmonella enterica, AJ2785, read-out: Minimum inhibitory concentration
# [6] = test system: Bacteroides fragilis JCM11019; experiment: Minimum inhibitory concentration, spot-on-lawn method
# [7] = test system: Bifidobacterium thermophilum AJ110569; experiment: as above
# [8] = test system: Clostridium perfringens AJ3350; experiment: microbe, parasite or virus in culture; conditions: Clostridium perfringens, AJ3350, read-out: Minimum inhibitory concentration
# [9] = test system: Enterococcus faecalis AJ110149; experiment: Minimum inhibitory concentration, spot-on-lawn method
# [10] = indicator strain Lactobacillus acidophilus AJ13778, MRS, 37° C., read-out: Minimum inhibitory concentration
# [11] = Escherichia coli, MG1665, read-out: Minimum inhibitory concentration
# [12] = indicator strain Lactobacillus salivarius AJ110152, MRS, 37° C., read-out: Minimum inhibitory concentration
# [13] = indicator strain Bacteroides fragilis JCM11019, GAM, 37° C., read-out: Minimum inhibitory concentration
# [14] = indicator strain Bifidobacterium thermophilum AJ110569, GAM, 37° C., read-out: Minimum inhibitory concentration
# [15] = material conc. 1 uM, comparison value with Ctr (TNFα alone), 24 h
# [16] = Homo sapiens, Caco-2, 24 h, read-out: Recovery ratio (%)
molecule,measurement,setting,value
"CC1=C(/C=C/C(C)=C/C=C/C(C)=C/C=C/C=C(C)/C=C/C=C(C)/C=C/C2=C(C)C(=O)[C@@H](O)CC2(C)C)C(C)(C)C[C@H](O)C1=O [Astaxanthin, astaxanthin]",activity at 10 µg/mL,"[1]; Homo sapiens, Caco-2, material conc. 10 mg/L, TER barrier function recovery, 24 h, read-out: Recovery ratio (%)",132%
same,Recovery ratio/ctr,"[1]; material conc. 10 mg/L, comparison value with Ctr (TNFα alone), 24 h",1.14
same,function of strengthening the barrier function (membrane-strengthening ability),"[1]; result in words, FIG. 1A-1H",observed to have the function of strengthening the barrier function
"CC[C@H](C)[C@H](N)C1=N[C@H](C(=O)N[C@@H](CC(C)C)C(=O)N[C@H](CCC(=O)O)C(=O)N[C@H](C(=O)N[C@H]2CCCCNC(=O)[C@H](CC(N)=O)NC(=O)[C@@H](CC(=O)O)NC(=O)[C@H](Cc3cnc[nH]3)NC(=O)[C@@H](Cc3ccccc3)NC(=O)[C@H]([C@@H](C)CC)NC(=O)[C@@H](CCCN)NC2=O)[C@@H](C)CC)CS1 [Bacitracin] (HELM PEPTIDE1{[CC[C@H](C)[C@H](N)C1=N[C@H](C(=O)[*:2])CS1].L.[dE].I.K.[NCCC[C@@H](N[*:1])C(=O)[*:2]].I.[dF].H.[dD].N}$PEPTIDE1,PEPTIDE1,5:R3-11:R2$$$V2.0)",MIC,[2]; [10],32000 µg/mL
same,MIC,[3]; [11],> 100000 µg/mL
same,MIC,[4]; [12],32000 µg/mL
same,MIC,[5],> 100000 µg/mL
same,MIC,[6]; [13],> 100000 µg/mL
same,MIC,[7]; [14],4000 µg/mL
"CCCC(=O)O [Butylate, butyric acid]",activity at 2000 µM,"[1]; Homo sapiens, Caco-2, material conc. 2.0 mM, TER barrier function recovery, 24 h, read-out: Recovery ratio (%)",131%
same,Recovery ratio/ctr,"[1]; material conc. 2.0 mM, comparison value with Ctr (TNFα alone), 24 h",1.13
CN(C)[C@@H]1C(O)=C(C(N)=O)C(=O)[C@@]2(O)C(O)=C3C(=O)c4c(O)ccc(Cl)c4[C@@](C)(O)[C@H]3C[C@@H]12 [Chlortetracycline],MIC,[2]; [10],4000 µg/mL
same,MIC,"[3]; indicator strain Escherichia coli MG1665, LB, 37° C., read-out: Minimum inhibitory concentration",50000 µg/mL
same,MIC,[4]; [12],3000 µg/mL
same,MIC,[5],50000 µg/mL
same,MIC,[6]; [13],4000 µg/mL
same,MIC,[7]; [14],16000 µg/mL
same,MIC,[8],62 µg/mL
"COc1cc(/C=C/C(=O)CC(=O)/C=C/c2ccc(O)c(OC)c2)ccc1O [Curcumin, curcumin]",activity at 200 µM,"[1]; Homo sapiens, Caco-2, material conc. 200 uM, TER barrier function recovery, 24 h, read-out: Recovery ratio (%)",128%
same,Recovery ratio/ctr,"[1]; material conc. 200 uM, comparison value with Ctr (TNFα alone), 24 h",1.14
"NC(=O)CC[C@H](N)C(=O)O [Glutamine, glutamine]",activity at 20000 µM,"[1]; Homo sapiens, Caco-2, material conc. 20 mM, TER barrier function recovery, 24 h, read-out: Recovery ratio (%)",136%
same,Recovery ratio/ctr,"[1]; material conc. 20 mM, comparison value with Ctr (TNFα alone), 24 h",1.18
CC[C@@]1([C@@H]2O[C@@H]([C@H]3O[C@@](O)(CO)[C@H](C)C[C@@H]3C)C[C@@H]2C)CC[C@H]([C@]2(C)CC[C@]3(C[C@H](O)[C@@H](C)[C@@H]([C@@H](C)[C@@H](OC)[C@H](C)C(=O)O)O3)O2)O1 [Monensin],activity at 1 µM,"[1]; Homo sapiens, Caco-2, material conc. 1 uM, TER barrier function recovery, 24 h, read-out: Recovery ratio (%)",126%
same,Recovery ratio/ctr,[1]; [15],1.13
same,MIC,[2]; [10],2000 µg/mL
same,MIC,"[9]; indicator strain Enterococcus faecalis AJ110149, MRS, 30° C., ND = no effect detected, read-out: Minimum inhibitory concentration",2000 µg/mL
same,MIC,[3]; [11],> 100000 µg/mL
same,MIC,[4]; [12],1000 µg/mL
same,MIC,[5],> 100000 µg/mL
same,MIC,[7]; [14],2000 µg/mL
same,MIC,[8],1000 µg/mL
"O=C(O)C(O)Cc1ccccc1 (stereo not shown) [Phenyl-lactate, phenyl lactatic acid]",Recovery ratio (%),"[1]; material conc. 0.2 mM, TER barrier function recovery, 24 h",129%
same,Recovery ratio/ctr,"[1]; material conc. 0.2 mM, comparison value with Ctr (TNFα alone), 24 h",1.12
CC[C@@H](C(=O)[C@@H](C)[C@@H](O)[C@H](C)[C@@H]1O[C@@H]([C@@H](CC)C(=O)O)CC[C@@H]1C)[C@H]1O[C@]2(C=C[C@@H](O)[C@]3(CC[C@@](C)([C@H]4CC[C@](O)(CC)[C@H](C)O4)O3)O2)[C@H](C)C[C@@H]1C [Salinomycin],activity at 1 µM,[1]; [16],124%
same,Recovery ratio/ctr,[1]; [15],1.10
same,MIC,"[2]; Lactobacillus acidophilus, AJ13778, read-out: Minimum inhibitory concentration",2000 µg/mL
same,MIC,"[9]; Enterococcus faecalis, AJ110149, read-out: Minimum inhibitory concentration",500 µg/mL
same,MIC,[3]; [11],> 100000 µg/mL
same,MIC,"[4]; AJ110152, read-out: Minimum inhibitory concentration",1000 µg/mL
same,MIC,[5],> 100000 µg/mL
same,MIC,"[6]; Bacteroides fragilis, JCM11019, read-out: Minimum inhibitory concentration",64000 µg/mL
same,MIC,"[7]; Bifidobacterium thermophilum, AJ110569, read-out: Minimum inhibitory concentration",2000 µg/mL
same,MIC,[8],1000 µg/mL
"N[C@@H](Cc1c[nH]c2ccccc12)C(=O)O [Tryptophan, tryptophan]",activity at 4000 µM,[1]; [16],128%
same,Recovery ratio/ctr,"[1]; material conc. 4 mM, comparison value with Ctr (TNFα alone), 24 h",1.11
"CC(C)[C@H](N)C(=O)O [Valine, valine]",Recovery ratio/ctr,"[1]; 24 h, 200 µM",1.13
same,activity at 200 µM,"[1]; Homo sapiens, Caco-2, material conc. 0.2 mM, TER barrier function recovery, 24 h, read-out: Recovery ratio (%)",130%
Zinc Bacitracin,Recovery ratio (%),"[1]; material conc. 10 uM, TER barrier function recovery, 24 h",124%
same,Recovery ratio/ctr,"[1]; material conc. 10 uM, comparison value with Ctr (TNFα alone), 24 h, 1.1 or more = membrane-strengthening ability",1.10
